From patent US20080161219A1, “CLATHRATES OF AN ORGANOSILANE QUATERNARY AMMONIUM COMPOUND AND UREA AND METHODS OF USE” (priority 2007, published 2008)

Legend:
[1] = Solubility / stability against decomposition in chloroform; assay type: physicochemical
Protocol: The following experiments were conducted to determine if the clathrate compositions of this invention would be decomposed by chloroform (a strong solvent).
7.51 grams of urea were slurried in a beaker with 75.4 grams of chloroform by magnetic stirring for 10 minutes. The slurry was then filtered by gravity through filter paper. The filtrate was employed to rinse the beaker to remove all solids and the rinse added to the filter cake. The filtrate was then evaporated in a tared beaker and a residue of 0.01 grams obtained (which was within experimental error). From this experiment, it can be concluded that urea was insoluble in chloroform.
10.21 grams of Example 7, Table 1 organosilane quaternary clathrate was slurried as above in 75 grams of chloroform for 10 minutes and the slurry filtered as above and the filtrate evaporated to dryness. A waxy residue of 0.07 grams remained in the beaker.
It can be concluded that this residue was not the organosilane quaternary. The solids that were filtered were dried to constant weight. 10.24 grams were recovered. 10.21 grams of the clathrate had been added. The difference of +0.03 grams was within experimental error. It can be concluded that the clathrate was not soluble in chloroform and that the organosilane quaternary was not extracted from the clathrate by the chloroform.

[2] = Dissolving clathrate in deionized water (appearance of mixture); assay type: physicochemical; conditions: 6.4 gms clathrate in 800 ml deionized water (pH=3), shaken; 0.2% quat, 0.6% urea
Protocol: Clean and shield compositions were prepared by dissolving 6.4 gms of each urea clathrate of Examples 4 and 7 from Table 1 in 800 ml of deionized water (pH=3) by shaking in a plastic bottle. The resulting solutions contained 0.2% organosilane quaternary compound and 0.6% urea.

residue of evaporated chloroform filtrate [1] [grams]	solubility in chloroform [1]	Compound	appearance of solution [2]
0.01	insoluble	NC(N)=O [urea]	
		CCCCCCCCCCCCCCCCCC[N+](C)(C)CCC[Si](OC)(OC)OC.[Cl-] [Example 7, 3-(trimethoxysilyl)propyldimethyloctadecyl ammonium chloride]	clear
